Measurements from patent US20050124638A1, “Benzimidazoles and analogs thereof as antivirals” (priority 2003, published 2005).
Where two headings read alike, the source gives them in different places.

How the values were obtained:
[1] = molecular target: HCV IRES stem IIa RNA target; assay: Mass spectrometry based binding assay; details: for binding percentages of ligand to target: ligand 50 μM, IIa target 2.5 μM, Table 1
[2] = tested on: HCV RNA levels in Ntat2ANeo replicon containing cell line; assay: Replicon assay (Ntat2ANeo replicon cells, quantitative RT-PCR of HCV RNA); type: cell-based; details: Hepatitis C virus; Table 8
[3] = MTT toxicity assay; type: cell-based
From the text: The color was quantified by spectrophotometric means. For each cell type a linear relationship between cell number and absorbance is established, enabling quantification of changes of proliferation.

[4] = Single dose in vivo pharmacokinetic study; details: rats, single 3.0 mg/kg IV, mean; for clearance / Vd: rat, plasma; for Vd: read-out: Vdss
Experimental: A single dose pharmacokinetic study was performed to investigate the pharmacokinetics of representative compounds. Of particular interest was […] the ability of the compounds to accumulate in liver, which is the target tissue for HCV chemotherapy as it is the primary reservoir of virus. 3-4 rats per group were administered a single dose (3 mg/kg intravenously, IV or 6 mg/kg orally, PO). Blood samples were taken at 0.25, 0.5, 1, 2, 3, 4, 6, and 8 h timepoints, and pharmacokinetic parameters calculated. Both representative compounds were rapidly distributed to tissues, as evidenced by the high clearance rates and volumes of distribution, and low levels of excretion (ca 10% of total drug in urine and feces at 8 h). Major tissues were examined for presence of drug. […] The tissue accumulation for the IV dose is shown in FIG. 1, as a function of concentration and percent of total administered dose.

[5] = Table 8, read-out: Kd to IIa target
[6] = constrained vs unconstrained N1/N2 side chains, read-out: KD

SMILES	Kd [1, 5]	IC50 [2]	CC50 at 48 h [3]	also measured
CN(C)CC1CNc2nc3ccc(OCCCN(C)Cc4nccs4)cc3n2C1 (stereo not shown) [IBIS00554888]	8.8 µM	> 100 µM	> 100 µM	–
CN(C)CCCn1c(N)nc2ccc3c(c21)CC(CN(C)CCN(C)C)CO3 (stereo not shown) [IBIS00560025]	9.4 µM	71.2 µM	> 100 µM	–
CN(C)CCCOc1ccc2ncn(CCCN(C)C)c2c1	–	–	–	MS Target Selectivity ([1]; Table 3): 1; Kd ([1]; Table 3, read-out: Est. KD): > 500 µM
CN(C)CCCOc1ccc2nc(N)n(CCCN(C)C)c2c1 [drawing 125]	–	–	–	Kd [1, 6]: 3.6 µM
CN(C)CCCOc1ccc2nc(N)[nH]c2c1	–	–	–	MS Target Selectivity ([1]; Table 3): ˜2; Kd ([1]; Table 3, read-out: Est. KD): > 500 µM
CN(C)CCn1c(N)nc2ccccc21	–	–	–	binding percentages of ligand to target [1]: 11%
CN(C)CC1CNc2nc3ccc(OCCCN(C)Cc4cccn4C)cc3n2C1 (stereo not shown) [IBIS00554842]	0.78 µM	4 µM	50 µM	–
CN(C)CCCn1c(N)nc2ccc3c(c21)CC(CN(C)Cc1cccn1C)O3 (stereo not shown) [IBIS00560102]	10.4 µM	3.3 µM	> 100 µM	–
Nc1nc2ccccc2n1CCCN1CCCC1	–	–	–	binding percentages of ligand to target [1]: 15%
CN(C)CC1CNc2nc3ccc(OCCCN(C)Cc4ccc[nH]4)cc3n2C1 (stereo not shown) [IBIS00528636]	1.2 µM	27.2 µM	90 µM	–
CN(C)CC1COc2ccc3nc4n(c3c2C1)CC(CN(C)C)CN4 (stereo not shown) [IBIS00560146]	21.1 µM	5.4 µM	> 100 µM	–
CN(C)CC1CNc2nc3ccc(OCCCN(C)Cc4ccc(CO)o4)cc3n2C1 (stereo not shown) [IBIS00554889]	5.9 µM	57.9 µM	> 100 µM	–
CN(C)CCCOc1ccc2nc3n(c2c1)CC(CN(C)C)CN3 (stereo not shown) [drawing 124]	–	–	–	Kd [1, 6]: 0.67 µM
CN(C)CCCn1c(N)nc2ccccc21 [drawing 62]	–	–	–	binding percentages of ligand to target [1]: 56% binding
CN(C)CCCn1c(N)nc2ccccc21 [drawing 67]	–	–	–	MS Target Selectivity ([1]; Table 2): ˜3; Kd ([1]; Table 2, read-out: Est. KD): ~100 µM
CN(C)CC1CNc2nc3ccc(OCCCN(C)Cc4ccccn4)cc3n2C1 (stereo not shown) [drawing 164]	–	–	–	clearance [4]: 160 mL/min/kg; Vd [4]: 137 L/kg; % AUC Extrap [4]: 47%; AUC [4]: 165 ng·h/mL; AUC Extrap [4]: 320 ng·h/mL; Co [4]: 219 ng/mL; MRT [4]: 2 h; T1/2 [4]: 14 h
CN(C)CCCOc1ccc2nc(N)n(CCCN(C)C)c2c1 [drawing 70]	–	–	–	MS Target Selectivity ([1]; Table 3): ˜15; Kd ([1]; Table 3, read-out: Est. KD): ~10 µM
CN(C)CCCn1c(N)nc2ccc3c(c21)CC(CN)CO3 (stereo not shown) [IBIS00560121]	17.2 µM	42.7 µM	> 100 µM	–
CN(CCCOc1ccc2nc3n(c2c1)CC(CN1CCCCC1)CN3)Cc1ccccn1 (stereo not shown) [IBIS00554811]	4.3 µM	24 µM	> 100 µM	–
CN(C)CCCOc1ccc2nc(N)n(CCCN(C)C)c2c1 [IBIS00403514]	3.8 µM	37.1 µM	–	–
CN(C)CCCn1c(N)nc2ccc3c(c21)CC(CN(C)C)CO3 (stereo not shown) [IBIS00560020]	2.2 µM	9 µM	> 100 µM	–
CN(C)CCCOc1ccc2nc3n(c2c1)CC(CN1CCCCC1)CN3 (stereo not shown) [IBIS00554807]	3.4 µM	14.1 µM	> 100 µM	–
CN(C)CC1CNc2nc3ccc(OCCCNC4CCN(Cc5ccccc5)CC4)cc3n2C1 (stereo not shown) [IBIS00528633]	4 µM	13.7 µM	> 100 µM	–

SMILES	Kd [1, 5]	IC50 [2]	CC50 at 48 h [3]	also measured
CN(C)CCCn1c(N)nc2ccc3c(c21)CC(CN(C)C(=N)N)CO3 (stereo not shown) [IBIS00560101]	5.5 µM	> 100 µM	> 100 µM	–
CN(C)CC1CNc2nc3ccc(OCCCN4CCC(N5CCCC5)CC4)cc3n2C1 (stereo not shown) [IBIS00528634]	1.7 µM	19.2 µM	> 100 µM	–
CN(C)CC1CNc2nc3ccc(OCCCN(C)Cc4cccs4)cc3n2C1 (stereo not shown) [IBIS00554886]	5 µM	15.3 µM	> 100 µM	–
Nc1nc2ccccc2n1CCOc1ccccc1	–	–	–	binding percentages of ligand to target [1]: 6%
CN(C)CCCn1c(N)nc2ccc3c(c21)CC(CN(C)C)O3 (stereo not shown) [IBIS00560047]	–	–	> 100 µM	–
CN(C)CCCn1c(N)nc2ccc3c(c21)CC(CCN)CO3 (stereo not shown) [IBIS00560024]	3.4 µM	> 100 µM	> 100 µM	–
CN(C)CCCn1c(N)nc2ccc(OCCCN(C)Cc3ccco3)cc21	–	–	–	clearance [4]: 34.5 mL/min/kg; Vd [4]: 82.8 L/kg; % AUC Extrap [4]: 80.0%; AUC [4]: 311 ng·h/mL; AUC Extrap [4]: 1928 ng·h/mL; Co [4]: 201 ng/mL; MRT [4]: 3.1 h; T1/2 [4]: 37.5 h
CNCC1COc2ccc3nc(N)n(CCCN(C)C)c3c2C1 (stereo not shown) [IBIS00560100]	3.1 µM	51.6 µM	> 100 µM	–
CN(C)CCCOc1ccc2nc3n(c2c1)CC(CN(C)C)CN3 (stereo not shown) [IBIS00408169]	4.5 µM	28.7 µM	> 100 µM	–
CN(C)CCCn1c(N)nc2ccc3c(c21)CC(CN(C)CCN(C)C)O3 (stereo not shown) [IBIS00560048]	11 µM	23 µM	> 100 µM	–
CN(C)CC1CNc2nc3ccc(OCCCN(C)Cc4ncc[nH]4)cc3n2C1 (stereo not shown) [IBIS00554843]	3.1 µM	> 100 µM	> 100 µM	–
CN(C)CC1CNc2nc3ccc(OCCCN[C@@H]4CCN(Cc5ccccc5)C4)cc3n2C1 (stereo partly shown) [IBIS00528635]	1 µM	42.3 µM	90 µM	–
CN(C)CC1CNc2nc3ccc(OCCCN(C)Cc4ccco4)cc3n2C1 (stereo not shown) [IBIS00554844]	1.7 µM	4.9 µM	> 100 µM	–
CN(C)CCCn1c(N)nc2ccc3c(c21)CC(CN(C)Cc1cccn1C)CO3 (stereo not shown) [IBIS00560031]	18 µM	21.7 µM	> 100 µM	–
CN(C)CCCn1c(N)nc2ccc3c(c21)CC(CN(C)Cc1ncc[nH]1)CO3 (stereo not shown) [IBIS00560122]	19.6 µM	> 100 µM	> 100 µM	–
CN(C)CCCOc1ccc2nc(N)n(CCCN(C)C)c2c1 [drawing 69]	–	–	–	MS Target Selectivity ([1]; Table 2): ˜15; Kd ([1]; Table 2, read-out: Est. KD): ~10 µM
CN(C)CC1CNc2nc3ccc(OCCCN(C)Cc4ccccn4)cc3n2C1 (stereo not shown) [IBIS00528637]	0.56 µM	14.2 µM	> 100 µM	–
CCN(CC)CCn1c(N)nc2ccccc21	–	–	–	binding percentages of ligand to target [1]: 15%
CN(C)CC1CNc2nc3ccc(OCCCN(C)Cc4cccc(Br)n4)cc3n2C1 (stereo not shown) [IBIS00560002]	110 µM	11.6 µM	> 100 µM	–
COc1ccc2nc(N)n(CCCN(C)C)c2c1	–	–	–	MS Target Selectivity ([1]; Table 2): ˜10; Kd ([1]; Table 2, read-out: Est. KD): ~40 µM
CN(C)CCCn1c(N)nc2ccccc21 [drawing 71]	–	–	–	MS Target Selectivity ([1]; Table 3): ˜3; Kd ([1]; Table 3, read-out: Est. KD): ~100 µM
CN(CCCOc1ccc2nc3n(c2c1)CC(CN1CCCCC1)CN3)Cc1ccco1 (stereo not shown) [IBIS00554813]	5.1 µM	18.2 µM	> 100 µM	–
